Values of other authors, collected in publication PMC10146281, “Pharmacokinetic and Pharmacodynamic Characteristics of Pelubiprofen Tromethamine vs. Pelubiprofen in Healthy Subjects” (Pharmaceutics, 2023).
Where two headings read alike, the source gives them in different places.

Details: cited from earlier work

Row | Compound | Cmax (in vivo) | Cmax
1 | CC(C)Cc1ccc(C(C)C(=O)O)cc1.N=C(N)NCCC[C@H](N)C(=O)O (centres unmarked) [ibuprofen arginate] | approximately 30 mg/L | –
2 | CC(C)Cc1ccc(C(C)C(=O)O)cc1 (centres unmarked) [ibuprofen] | – | approximately 24 mg/L
